What was measured:
[1] = tested on: TP Receptor; assay: TP Receptor Platelet Aggregation - Rabbit (U-46619-induced, platelet rich plasma); type: cell-based, New Zealand Rabbit; settings: at 0.1 mM; 1.5 μM U-46619
Protocol: Using these experimental conditions New Zealand Rabbit (2.75±0.25 kg) platelet rich plasma, Vehicle: 0.3% DMSO, Assay: Inhibition of 1.5 μM U-46619-induced platelet aggregation, Incubation Time, Temp: 5 min at 37° C., Incubation Buffer: Trisodium Citrate (0.13 M)-treated platelet rich plasma, Bath Volume: 0.5 mL, Time of Assessment: 5 min, Quantification Method: Optical Density Change. the assay performed according to Patscheke, H., and Stregmeier, K. (1984) Investigations on a selective non-prostanoic thromboxane antagonist, BM13,177, in human platelets. Thrombosis Research 33:277-288
The data were transformed to semi-log and then analysed using non-linear regression to a four-parameter dose-response curve Y=Bottom+(Top−Bottom)/(1+10^((Log EC50−X)*HillSlope)) using the log(agonist) vs. response—Variable slope function of GraphPad Prism software (http://graphpad.com/help/prism5/prism5help.html?usingnonlinear_regression_step_by_s.ht m).

[2] = biological target: T1, Human Recombinant (E. coli) PPARgamma (Homo sapiens, UniProt P37231); assay: PPAR gamma binding assay ([3H]-rosiglitazone)
T1 construct: host or cells: E. coli
T1 sequence (P37231 1-505): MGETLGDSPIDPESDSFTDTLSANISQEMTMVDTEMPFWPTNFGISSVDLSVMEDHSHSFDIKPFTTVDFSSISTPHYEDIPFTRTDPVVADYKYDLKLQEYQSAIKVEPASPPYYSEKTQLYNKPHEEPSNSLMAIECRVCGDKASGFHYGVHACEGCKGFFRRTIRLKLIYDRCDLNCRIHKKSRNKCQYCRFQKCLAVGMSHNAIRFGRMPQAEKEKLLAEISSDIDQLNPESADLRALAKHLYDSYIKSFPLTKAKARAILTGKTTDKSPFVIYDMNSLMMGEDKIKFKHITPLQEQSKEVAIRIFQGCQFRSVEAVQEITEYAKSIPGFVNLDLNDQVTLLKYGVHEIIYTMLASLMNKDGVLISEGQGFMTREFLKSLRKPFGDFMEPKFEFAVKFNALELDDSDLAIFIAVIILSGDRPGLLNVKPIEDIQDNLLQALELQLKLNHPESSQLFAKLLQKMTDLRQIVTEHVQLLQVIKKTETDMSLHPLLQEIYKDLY
Protocol: Human Recombinant (E. coli) PPARgamma) (h) Binding Assay:
The results are expressed as a percent of control specific binding ((measured specific binding/control specific binding)×100) obtained in the presence of the test compounds. The IC50 values (concentration causing a half-maximal inhibition of control specific binding) and Hill coefficients (nil) were determined by non-linear regression analysis of the competition curves generated with mean replicate values using Hill equation curve fitting (Y=D+[(A−D)/(1+(C/C50)nH)], where Y=specific binding, D=minimum specific binding, A=maximum specific binding, C=compound concentration, C50=IC50, and nH=slope factor). This analysis is performed using a software developed at Cerep (Hill software) and validated by comparison with data generated by the commercial software SigmaPlot® 4.0 for Windows® (© 1997 by SPSS Inc.). The inhibition constants (Ki) are calculated using the Cheng Prusoff equation (Ki=IC50/(1+(L/KD)), where L=concentration of radioligand in the assay, and KD=affinity of the radioligand for the receptor).

Row | SMILES | Platelet aggregation Rabbit Inhibition (%) [1] [%] | conversion of the prodrug to the corresponding acid [2] | binding to PPARgamma ([2]; [3H]-rosiglitazone 10 nM, 120 min at 4° C., compared with the acid of Example 1)
1 | COc1ccc(C(=O)NCc2cccnc2)cc1C(=O)NCc1cccnc1 [Picotamide] | 21 | – | –
2 | COC(=O)CC/C=C\C[C@@H]1COC(c2ccccc2Cl)O[C@@H]1c1ccccc1O (stereo partly drawn) [Prodrug 2] | – | the prodrug is converted to the corresponding acid | binds to PPARgamma at least as well as the corresponding acid
